These results are taken from ChEMBL document CHEMBL1201862, “PubChem BioAssay data set” (2004).

The structures appear in SMILES notation.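 Cells were grown in 96-well plates and exposed to each compound for 48 hours at five concentrations; endpoints were interpolated linearly between bracketing concentrations, or set to the highest concentration if not reached. GI50 is the concentration that inhibits growth by half.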 Active and inactive are the calls of the source. Cut-off read from the data, not from the text of the source: active = GI50 up to about 1.1 µM and inactive = higher.

Test systems include A498; CCRF-CEM; HCC 2998; HL-60; HT-29; LOX IMVI; M14; Malme-3M; NCI-H23; NCI-H460; NCI-H522; OVCAR-3; RPMI-8226; SK-OV-3; SNB-19; CAKI-1; HOP-92; IGROV-1; NCI-H226; OVCAR-8.
Test in all cases: growth of human tumour cells (NCI), 48 h

As to `CCCCCCCCCCCCCCCc1nnc(S)[nH]1`, the GI50 was > 100 µM (inactive) with A498; 51.3 µM (inactive) in the test with CCRF-CEM; > 100 µM (inactive) in the test with HCC 2998; 49.8 µM (inactive) with HL-60; > 100 µM (inactive) in the test with HT-29; > 100 µM (inactive) in the test on LOX IMVI. Moreover, the GI50 in the test with M14 was > 100 µM (inactive); in the test with Malme-3M it was > 100 µM (inactive); with NCI-H23, > 100 µM (inactive); in the test on NCI-H460, > 100 µM (inactive); in the test on NCI-H522, 19.6 µM (inactive); with OVCAR-3, > 100 µM (inactive). Moreover, the GI50 was 79.3 µM (inactive) with RPMI-8226, > 100 µM (inactive) in the test on SK-OV-3 and > 100 µM (inactive) in the test on SNB-19.

Consider `CN1C(=O)C(C#N)C2C[C@@]1(C)Oc1ccccc12` (some centres undefined), for which the GI50 in the test on A498, with CAKI-1, in the test with CCRF-CEM, in the test on HCC 2998, in the test on HL-60 and with HOP-92 was > 100 µM (inactive) in each case. Also, the GI50 in the test with HT-29, with IGROV-1, in the test on LOX IMVI, with M14, in the test on NCI-H226 and with NCI-H23 was > 100 µM (inactive) in each case. The GI50 in the test on NCI-H460 is 91.8 µM (inactive); in the test with NCI-H522, > 100 µM (inactive); with OVCAR-3 it was > 100 µM (inactive); with OVCAR-8, > 100 µM (inactive); in the test on RPMI-8226, > 100 µM (inactive); with SK-OV-3, > 100 µM (inactive). Besides, the GI50 in the test with SNB-19 is > 100 µM (inactive).

Consider `CSCCCNC(=O)c1csc(-c2csc(CCNC(=O)CNC(=O)CNC(=O)CNC(=O)OC(C)(C)C)n2)n1`, for which the GI50 in the test on A498, in the test on CAKI-1, in the test on CCRF-CEM, in the test with HCC 2998, in the test with HOP-92 and in the test with HT-29 was > 100 µM (inactive) each time. Besides, the GI50 in the test on IGROV-1, in the test on LOX IMVI, in the test with M14, with Malme-3M, in the test with NCI-H226 and in the test on NCI-H23 was > 100 µM (inactive) throughout. Further, the GI50 with NCI-H460, with NCI-H522, in the test with OVCAR-3, in the test with OVCAR-8, with SK-OV-3 and with SNB-19 was > 100 µM (inactive) throughout.

Consider `O=c1oc2ccccc2n1P(=O)(Oc1ccc(Cl)cc1)n1c(=O)oc2ccccc21`, for which the GI50 in the test on A498 is > 100 µM (inactive); in the test on CAKI-1, > 100 µM (inactive); in the test with CCRF-CEM, 18.5 µM (inactive); in the test with HCC 2998, 46.6 µM (inactive); with HL-60, 41.8 µM (inactive); in the test on HOP-92 it was > 100 µM (inactive). In addition, the GI50 in the test with HT-29, with IGROV-1, in the test on LOX IMVI, in the test on Malme-3M, in the test with NCI-H226 and in the test on NCI-H23 was > 100 µM (inactive) each time. The GI50 in the test on NCI-H522, in the test on OVCAR-3, in the test on OVCAR-8, in the test on SK-OV-3 and in the test on SNB-19 was > 100 µM (inactive) each time.

As for `CC(=O)/N=C1\N/C(=C/c2cc([N+](=O)[O-])ccc2O)CN1C`, the GI50 in the test with CAKI-1 is > 100 µM (inactive); in the test on HCC 2998, > 100 µM (inactive); in the test with HL-60 it was 69.2 µM (inactive); with HOP-92, > 100 µM (inactive); in the test on HT-29 it was > 100 µM (inactive); in the test with IGROV-1, > 100 µM (inactive). In addition, the GI50 in the test on LOX IMVI, in the test on M14, in the test on NCI-H226, in the test on NCI-H23, in the test with NCI-H460 and with OVCAR-3 was > 100 µM (inactive) in each case. In addition, the GI50 with OVCAR-8, with SK-OV-3 and with SNB-19 was > 100 µM (inactive) each time.

Take `Clc1cc(N/N=C(\c2ccccc2)c2ccccn2)ncn1`: the GI50 in the test on CAKI-1 was < 0.01 µM (active); in the test with CCRF-CEM, < 0.01 µM (active); in the test on HCC 2998, 5.94 µM (inactive); with HOP-92 it was 2.44 µM (inactive); in the test with HT-29 it was < 0.01 µM (active); in the test on IGROV-1 it was 0.0308 µM (active). Moreover, the GI50 is 0.281 µM (active) with LOX IMVI; 0.0361 µM (active) with M14; < 0.01 µM (active) with Malme-3M; 0.246 µM (active) with NCI-H226; 0.0904 µM (active) in the test with NCI-H23; 0.0262 µM (active) in the test with NCI-H460. Besides, the GI50 in the test on NCI-H522 was < 0.01 µM (active); in the test with OVCAR-3 it was 0.0223 µM (active); in the test on OVCAR-8, < 0.01 µM (active); in the test on RPMI-8226, 0.0438 µM (active); with SK-OV-3 it was 0.301 µM (active); in the test on SNB-19, 1.85 µM (inactive).

Regarding `CC(=O)O[C@H]1CC[C@H]2[C@@H]3CCC(C(C)=O)[C@H](C(=O)O)[C@H]3CC[C@]12C` (some centres undefined), the GI50 in the test with A498, in the test on CAKI-1, with CCRF-CEM, in the test with HCC 2998, in the test on HL-60 and with HOP-92 was > 100 µM (inactive) each time. Further, the GI50 with HT-29, in the test on IGROV-1, with M14, in the test with Malme-3M, with NCI-H23 and with NCI-H460 was > 100 µM (inactive) in each case. For the same compound, the GI50 with NCI-H522, in the test on OVCAR-3, in the test with OVCAR-8, with RPMI-8226, with SK-OV-3 and in the test with SNB-19 was > 100 µM (inactive) throughout.

Consider `O=C1OC(CN2CCOCC2)CN1/N=C/c1ccc([N+](=O)[O-])o1` (centres undefined) [FURALTADONE], for which the GI50 in the test on CAKI-1 is 38.5 µM (inactive); with CCRF-CEM, 53 µM (inactive); in the test on HL-60, 48.8 µM (inactive); in the test on HOP-92 it was 64.4 µM (inactive); with HT-29 it was 32.4 µM (inactive); in the test with IGROV-1, 32.3 µM (inactive). Also, the GI50 in the test on LOX IMVI is 21.7 µM (inactive); with M14 it was 20.7 µM (inactive); with Malme-3M it was 22.7 µM (inactive); with NCI-H226, 39.1 µM (inactive); in the test with NCI-H23, 22.9 µM (inactive); in the test with NCI-H460, 31.4 µM (inactive). Besides, the GI50 was 26 µM (inactive) in the test on NCI-H522; 21.9 µM (inactive) in the test on OVCAR-3; 45.8 µM (inactive) in the test with OVCAR-8; 24.2 µM (inactive) in the test on RPMI-8226; 74.6 µM (inactive) in the test on SK-OV-3; 86.1 µM (inactive) in the test with SNB-19.

Take `CCOC(=O)/C=C1/C(CCCOCc2ccccc2)C2CCCC23CC2(CCN13)OCCO2` (centres undefined): the GI50 is 19.9 µM (inactive) in the test with A498; 19.5 µM (inactive) in the test on CCRF-CEM; 25.8 µM (inactive) with HCC 2998; 10.2 µM (inactive) in the test on HL-60; 16.9 µM (inactive) in the test with HT-29; 24.7 µM (inactive) with IGROV-1. Also, the GI50 was 18.1 µM (inactive) in the test on LOX IMVI; 16.1 µM (inactive) in the test on Malme-3M; 22.6 µM (inactive) with NCI-H226; 12.5 µM (inactive) with NCI-H23; 18.7 µM (inactive) in the test with NCI-H460; 6.82 µM (inactive) in the test with NCI-H522. Further, the GI50 with OVCAR-3 was 18.3 µM (inactive); in the test with OVCAR-8 it was 24.8 µM (inactive); in the test on RPMI-8226, 6.24 µM (inactive); in the test on SK-OV-3, 43 µM (inactive); in the test on SNB-19 it was 33.3 µM (inactive).

Turning to `CCOc1ncn(-c2ccc(NC(=S)Nc3cccc(O)c3)cc2)n1`, the GI50 in the test with CCRF-CEM, with HCC 2998, with HL-60, with HOP-92, in the test with HT-29 and in the test with IGROV-1 was > 100 µM (inactive) in each case. Moreover, the GI50 in the test on LOX IMVI, with M14, in the test on NCI-H23, with NCI-H460, in the test on NCI-H522 and with OVCAR-3 was > 100 µM (inactive) each time. Further, the GI50 with OVCAR-8, with RPMI-8226, in the test on SK-OV-3 and in the test with SNB-19 was > 100 µM (inactive) in each case.

`COc1cc(OC)cc(Oc2nc3cc(F)c(F)cc3nc2-c2ccccc2)c1`: the GI50 in the test on A498, with CAKI-1, in the test with CCRF-CEM, in the test on HL-60, in the test with HOP-92 and with HT-29 was > 100 µM (inactive) each time. Moreover, the GI50 in the test on IGROV-1, with LOX IMVI, with M14, with Malme-3M, in the test on NCI-H226 and with NCI-H23 was > 100 µM (inactive) each time. Further, the GI50 in the test on NCI-H460, in the test on NCI-H522, in the test on OVCAR-3, in the test with OVCAR-8, with SK-OV-3 and with SNB-19 was > 100 µM (inactive) throughout.
